Test system: bone cells containing osteoclast cells
Test: Pit formation assay: inhibition of osteolysis (absorption pits on ivory slices)
Type: cell-based, ICR mice
Conditions: for inhibition at 10 µM: Mus musculus, Osteoclast, read-out: Ratio of inhibition (%); for inhibition at 10 µM / Ratio of inhibition (%): 0% = pits with rPTH (1×10^-8 M) without medicine, 100% = no absorption pit; for Ratio of inhibition (%): 4320 min
Procedure: ICR mice 11-12 days old (purchased from Charles River Japan) were euthanized by anesthesia with ether and immediately immersed in 70% ethanol for disinfection. By the use of ophthalmologist scissors and pincers sterilized in advance with ethanol, femur and tibia were excised from the sacrificed mice and chopped into small pieces in an α-MEM culture medium (purchased from Flow Laboratories Corp.). containing 5% FBS (purchased from Irvine Scientific Corp.), 100 U/ml penicillin and 100 μg/ml streptomycin. The supernatant formed consequently was recovered by pipeting, cleaned with the culture broth, and suspended in a 5% FBS α-MEM culture broth to obtain bone cells containing osteoclast cells. The supernatant of a bone cell-floating liquid formed after 3 minutes' standing of the bone cells at rest was recovered and passed through a mesh (cell strainer, 70 μm, purchased from Falcon Corp.). The filtrate was adjusted to a cell concentration of 1×10^7 /ml and used for the pit formation assay.
An ivory piece was cut into slices, 150 μm in thickness, by the use of a precision low-speed cutting machine (purchased from Buehler Corp.). Cylindrical holes, 6 mm in diameter, were perforated in the slices by the use of a one-hole punch. The ivory slices were immersed in 70% ethanol and subjected therein to an ultrasonic cleaning treatment twice each for five minutes and washed three times with a sterilized PBS and twice with the culture medium. The ivory slices were set in place on a 96-hole culture plate (purchased from Falcon Corp.). The perforated ivory slices on the culture plate, with a culture broth containing a given compound of the present invention prepared in a concentration of 2×10^-5 M added in a fixed volume of 100 μl (final medicine concentration 1×10^-5 M) to each of the holes and a culture broth containing prepared bone cells in a concentration of 1×10^7 /ml placed in each of the holes, were cultured for three days in a 10% CO2 incubator at 37° C. After the culture, the ivory slices were placed in an aqueous 2 N sodium hydroxide and the cells on the slices were removed by the use of a rubber spatula. The ivory slices were washed with water and methanol. The absorption pits formed in the ivory slices were dyed with Coomassie Brilliant Blue and were counted under a microscope. Though the numbers of absorption pits were naturally found to disperse among test lots, depending on the ratios of varying specie s of cells in the bone cell suspensions and the lots of animals used, satisfactorily uniform test results were found in one and the same test lot. The ratio of inhibition of osteolysis was calculated on the 100% scale, in which 0% stands for the number of absorption pits found in the culture broth in the presence of rPTH (1×10^-8 M) and in the absence of a medicine and 100% for total absence of absorption pit.
The test described above was performed in a total of ten runs, Tests 1-10.
In the columns titled "Added medicine No." found in Table 2 and Table 3, the symbol (-) denotes a control involving no addition of medicine and the numerical No. denotes the No. of the compound mentioned above.

[1] = compound 10^-5 M, 3 days culture at 37° C., 10% CO2, control per test run given as (-)

## Cc1cc(O)cc(O)c1C(=O)CC(C)C [Compound 47, (2,4-dihydroxy-6-methylphenyl) (2-methylpropyl) ketone]
72 h, 10 µM
  No. of absorption pits (Mean ± SD): 179.8 ± 23.8
72 h, compound 10^-5 M
  inhibition at 10 µM: 10.9%

## CC(C)=CCOc1cc(C)c(C(=O)CC(C)C)c(O)c1 [Compound 48, {2-hydroxy-6-methyl-4-(3-methyl-2-butenyloxy)phenyl} (2-methylpropyl) ketone]
72 h, 10 µM
  No. of absorption pits (Mean ± SD): 85.2 ± 7.5
72 h, compound 10^-5 M
  inhibition at 10 µM: 57.8%

## CC(C)=CCc1c(O)cc(C)c(C(=O)CC(C)C)c1O [Compound 49, {2,4-dihydroxy-6-methyl-3-(3-methyl-2-butenyl)phenyl} (2-methylpropyl) ketone]
72 h, 10 µM
  No. of absorption pits (Mean ± SD): 44.3 ± 5.4
72 h, compound 10^-5 M
  inhibition at 10 µM: 78%

## CC(C)=CCc1c(O)cc(O)c(C(=O)CC(C)C)c1C [Compound 50, {4,6-dihydroxy-2-methyl-3-(3-methyl-2-butenyl)phenyl} (3-methylpropyl) ketone]
72 h, 10 µM
  No. of absorption pits (Mean ± SD): 40.1 ± 7.0
72 h, compound 10^-5 M
  inhibition at 10 µM: 80.1%

## CC(C)=CCOc1c(CC=C(C)C)c(C)c(C(=O)CC(C)C)c(O)c1CC=C(C)C [Compound 51, {3,5-bis(3-methyl-2-butenyl)-2-hydroxy-6-methyl-4-(3-methyl-2-butenyloxy)phenyl} (2-methylpropyl) ketone]
72 h, 10 µM
  No. of absorption pits (Mean ± SD): 102.7 ± 6.2
72 h, compound 10^-5 M
  inhibition at 10 µM: 42.8%

## CC(C)CC(=O)c1ccc(O)cc1O [Compound 52, (2,4-dihydroxyphenyl)(2-methylpropyl) ketone]
72 h, 10 µM
  No. of absorption pits (Mean ± SD): 94.3 ± 13.8
72 h, compound 10^-5 M
  inhibition at 10 µM: 44.9%

## CC(C)=CCOc1ccc(C(=O)CC(C)C)c(O)c1 [Compound 53, {2-hydroxy-4-(3-methyl-2-butenyloxy)phenyl} (2-methylpropyl) ketone]
72 h, 10 µM
  No. of absorption pits (Mean ± SD): 55.1 ± 11.1
72 h, compound 10^-5 M
  inhibition at 10 µM: 67.8%

## CC(C)=CCc1c(O)ccc(C(=O)CC(C)C)c1O [Compound 54, (2,4-dihydroxy-3-(3-methyl-2-butenyl)phenyl) (2-methylpropyl) ketone]
72 h, 10 µM
  No. of absorption pits (Mean ± SD): 66.5 ± 9.7
72 h, compound 10^-5 M
  inhibition at 10 µM: 61.2%

## CC(C)=CCc1cc(C(=O)CC(C)C)c(O)cc1O [Compound 55, {2,4-dihydroxy-5-(3-methyl-2-butenyl)phenyl} (2-methylpropyl)ketone]
72 h, 10 µM
  No. of absorption pits (Mean ± SD): 15.8 ± 3.3
72 h, compound 10^-5 M
  inhibition at 10 µM: 90.8%

## (2,4,5-trihydroxyphenyl) (2-methylpropyl) ketonemono(3-methyl-2-butenyl) ether [Compound 28]
[1]
  No. of absorption pits (Mean ± SD): 61.3 ± 5.5
Compound 10^-5 M, 10 µM
  Ratio of inhibition (%): 69.6%

## {6-(3-methyl-2-butenyl)-2,4,5-trihydroxyphenyl} (2-methylpropyl) ketonemono(3-methyl-2-butenyl) ether [Compound 27]
[1]
  No. of absorption pits (Mean ± SD): 38.8 ± 6.6
Compound 10^-5 M, 10 µM
  Ratio of inhibition (%): 80.8%

Source: patent publication US6177474A, “Polyhydroxyphenol derivatives and preventive and therapeutic agents for bone and cartilage diseases containing the same” (Hoechst Marion Roussel, priority 1996, dated 2001)
